# Measured values from article PMC9313945, “Peptide Aggregation Induced Immunogenic Rupture (PAIIR)” (Advanced Science, 2022).
# Columns and labels:
# [1] = tested on: OVCAR‐8 cells; assay: Caspase-3 and GSDME cleavage, western blot; type: cell-based, human; conditions: OVCAR-8, 50 µM cisplatin for 24 h
# Excerpt: Regulated cell death via an inducer is concentration and time‐dependent and therefore controllable. On the other hand, unregulated cell death cannot be controlled to the same extent as it mainly results from mechanical forces or temperature. The unregulated cell death releases an instantaneous burst of DAMPs, while the DAMP release from regulated cell death is prolonged. Therefore, regulated ICD is desired for a controlled immune response. Regulated necrotic cell deaths are caspase‐dependent.^[ [50], [51] ^] To identify whether [II]‐induced cell death is regulated, we analyzed the cleavage of caspase‐3, a known mediator of apoptosis, and GSDME mediated pyroptosis (regulated necrosis).^[ [2], [52] ^] We compared the caspase‐3 cleavage among different cell death modalities; we used cisplatin ‐ a known apoptosis inducer in the OVCAR‐8 cell line.^[ [53] ^] We also used heat treatment to induce multiple cell death modalities, including necrosis, apoptosis, and necroptosis.^[ [54] ^] Additionally, we applied a freeze/thaw (F/T) method, a common technique to induce unregulated necrosis.^[ [55] ^] […]
# Protein samples were diluted in Laemmli buffer and boiled for 5 min at 96 °C. […] Lastly, western blotting luminol reagent solution was added on top of the membranes, and chemiluminescence signal was detected by Azure c600 Imaging Biosystems.
# [2] = tested on: OVCAR‐8 cells; assay: Live-dead imaging of OVCAR-8 cells; type: cell-based, human; conditions: OVCAR-8, 0.5 mM peptide, 6 h, RPMI with 10% FBS; negative peptide added first, then positive
# Experimental: We used the human ovarian cancer cell line OVCAR‐8 as our initial model to identify the effect of the peptides on cells. All cell culture experiments were performed in an RPMI cell culture medium with 10% FBS. At 0.5 mM (i.e., above the overall CAC), the individual peptides mixed on the cells by promptly adding the first negative, then positive counterparts. The viability of the cells was measured for 6h through live‐dead imaging (Figure 3A). […] Because the peptides, if aggregate, form one‐dimensional structures, the shape of the aggregates is not likely to be effective on the action of the peptides. [II] has the lowest CAC and highest ordered aggregation (Figure 2B–D). Additionally, the equilibrium time of [II] aggregations was the shortest among the tried groups (Table 1 ). These all indicate that [II] peptides have the highest affinity to each other, which creates aggregations strong and fast enough to induce cell death.
# To understand the effect of peptide aggregates versus peptides alone on the cell death identified with [WW] and [II], we performed a live/dead assay with individual peptides at 0.5 mM after 6h (Figure 3A). […] Similarly, the negative [WW] […] Positive charged peptides containing W are promiscuous residues for membrane damaging peptides, possibly because of W's “anchoring” role; W is abundant in membrane proteins, particularly near the lipid–water interface.^[ [37], [38] ^]
# Positively and negatively charged self‐assembling peptides were mixed 30 min prior to experiment except where otherwise stated. The viability of the cell lines was measured by using CellTiter‐Glo 2.0 Reagent (Promega G9248). The luminescent signal was measured in accordance with the manufacturer's instructions. Measurements were carried out with BioTek Neo2SM microplate reader and relative viability was calculated. Live‐Dead assay was carried out using Viability/Cytotoxicity Assay kit (BIOTIUM 30002). After peptide treatment, cells were treated with calcein and ethidium homodimer in accordance with the manufacturer's instructions. […]
Compound,Caspase-3 cleavage [1],"Cell viability / cell death, live-dead imaging [2]"
"N.N.[Cl][Pt][Cl] [Cisplatin, cisplatin]",showed caspase‐3 cleavage,
EFFWWE,,did not show any cell death
KFFIIK,,does not cause cell death
KFFWWK,,induced the cell death
